Reference: US20030032774A1, “Novel opioid peptides for the treatment of pain” (priority 1994, published 2003)
Like-named read-outs stand apart in the source and are kept apart here. Square brackets hold non-standard residues; d marks the D form. Peptide text beside a SMILES is read from it. * marks the point of attachment. Phe(4-NO2) = N[C@@H](Cc1ccc([N+](=O)[O-])cc1)C(=O)O; Phe(4-N3) = [N-]=[N+]=Nc1ccc(C[C@H](N)C(=O)O)cc1; 1Nal = N[C@@H](Cc1cccc2ccccc12)C(=O)O; 2Nal = N[C@@H](Cc1ccc2ccccc2c1)C(=O)O; NMeF = CN[C@@H](Cc1ccccc1)C(=O)O; Tic = O=C(O)[C@@H]1Cc2ccccc2CN1; dNle = CCCC[C@@H](N)C(=O)O; dAbu = CC[C@@H](N)C(=O)O; Ac5c = NC1(C(=O)O)CCCC1; Aib = CC(C)(N)C(=O)O; Bn = c1ccc(C*)cc1

How the values were obtained:
μ receptor = molecular target: T1, μ receptor (Rattus norvegicus, UniProt P33535); assay: Radioligand binding assay, μ opioid receptor ((3H)-DAMGO, brain membranes)
T1 construct: the brains (minus the cerebellum) were removed, placed in ice-cold saline solution, and then homogenized; from tissue; host or cells: rat brain (minus cerebellum) membranes
T1 sequence (P33535 whole entry): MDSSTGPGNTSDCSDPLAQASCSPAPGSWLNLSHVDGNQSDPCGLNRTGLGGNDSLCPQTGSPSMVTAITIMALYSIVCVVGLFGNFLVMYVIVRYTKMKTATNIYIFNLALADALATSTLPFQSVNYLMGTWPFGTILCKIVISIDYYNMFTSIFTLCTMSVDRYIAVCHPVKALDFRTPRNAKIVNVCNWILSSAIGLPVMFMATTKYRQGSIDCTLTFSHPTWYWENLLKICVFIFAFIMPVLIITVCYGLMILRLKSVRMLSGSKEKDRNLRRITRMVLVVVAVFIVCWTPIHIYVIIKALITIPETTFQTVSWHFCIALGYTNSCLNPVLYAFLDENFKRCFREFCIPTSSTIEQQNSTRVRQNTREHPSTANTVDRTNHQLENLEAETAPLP
Experimental: PBQ (phenyl-ρ-benzoquinone) induced writhing in mice is an assessment of both central and peripheral analgesia (see Sigmund, et al., Proc. Soc. Exp. Biol. Med. 95:729 (1957)). Central analgesia is determined by the inhibition of a hot-plate response in mice (see, Wolfe, et al., J. Pharmacol. Exp. Ther. 80:300 (1944)). Assays measuring opioid receptor binding affinities for μ and δ receptors as well as the GPI assay were determined through experimental protocol set out in Schiller et al. (Biophys. Res. Commun. 85:1322 (1975)). The references by Sigmund, et al., Wolfe, et al., and Schiller, et al. are each hereby incorporated by reference.
Male Sprague-Dawley rats weighing between 350-450 g were sacrificed by inhalation of CO2. The rats were decapitated and the brains (minus the cerebellum) were removed, placed in ice-cold saline solution, and then homogenized in ice-cold 50 mM Tris buffer pH 7.4 (10 ml/brain). Membranes were centrifuged at 14000 rpm for 30 min. at 4° C. The pellets were re-suspended in approximately 6 ml/brain of ice-cold Tris buffer 50 mM pH 7.4 and stored at −78° C. until ready for use. Protein quantification of the brain homogenate was conducted according to protein assay kit purchased (Bio-Rad).
(^3H)-DAMGO and (^3H)-DAGLE were used as radioligands for the μ and δ receptors, respectively. Radioligand 50 μl, membranes 100 μl, and serially diluted test compound were incubated for 1 hr at 22° C. Nonspecific binding was determined using a 500 fold excess of unlabeled ligand in the presence of tracer and membranes. Free ligand was separated from bound by filtration through Whatman GF/B paper (presoaked in polyethylenimine 1% aqueous solution) and rinsing with ice-cold 50 mM Tris pH 7.4 using a Brandel cell harvester. The filters were dried and radioactivity was counted in a 24 well microplate in the presence of 500 μl scintillant per well. Radioactivity was measured using a Wallace 1450 Microbeta counter. Ki's for the various compounds were determined from the IC50 according to the Cheng and Prusoff equation.

μ receptors = μ receptors (Cavia porcellus, UniProt P97266); assay: Guinea Pig Ileum (GPI) assay, longitudinal muscle preparation
Chain of μ receptors (P97266 whole entry, looked up): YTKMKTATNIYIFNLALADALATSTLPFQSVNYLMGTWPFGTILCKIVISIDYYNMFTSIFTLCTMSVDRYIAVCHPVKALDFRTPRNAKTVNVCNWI
Experimental: The activity of the peptide compounds on μ receptors was determined using the Guinea Pig Ileum (GPI) assay (longitudinal muscle preparation) according to the procedures described in Schiller et al., Biophys. Res. Commun. 85:1322 (1975).

[1] = test system: PBQ induced writhing in mice; assay: PBQ (phenylquinone)-induced writhing assay; type: in vivo, mouse; conditions: mouse s.c., 20 min post administration
Experimental: The test was performed on CD #1 male mice weighing between 18 and 22 g. Mice were weighed, marked and then injected, by the intraperitoneal route, with 0.3 ml/20 g by weight of a solution of phenylquinone at 0.02%. The contortions which appeared during a 15 minute time period following the injection were counted. The phenylquinone was injected at time intervals of 5, 20 or 60 minutes after administration of the compound (or medium, or standard) by subcutaneous route. It was injected at time intervals of 60 minutes after the administration of the compound (or medium, or standard) by oral route;
The 0.02% phenylquinone solution was prepared as follows: 20 mg of phenylquinone was dissolved in 5 ml ethanol 90% (Sigma). The dissolved phenylquinone was slowly added to 95 ml of distilled water continuously shaken and preheated (not boiled). The phenylquinone solution was, at all times protected from light and a new solution was prepared every day for the test. Each group usually contained 10 mice. If an antagonist, such as naloxone, was used, it was administered 20 minutes before the compound (or the medium, or the standard) by the intraperitoneal route.
Writhing assays were performed on CD#1 male mice weighing between […]. Assays were carried out as described in Example 3 and results are summarized below in Table 2.

Row | Compound | Ki (μ receptor; Ki^μ, Table 1) [µM] | ED50(PBQ) [1] [mg/kg] | other results
1 | C[C@@H](NC(=O)[C@@H](N)Cc1ccc(O)cc1)C(=O)N[C@@H](Cc1ccc([N+](=O)[O-])cc1)C(=O)N[C@@H](Cc1ccccc1)C(N)=O [BCH1779, H-Tyr-D-Ala-Phe(4-NO2)-Phe-NH2] (H-Y[dA][Phe(4-NO2)]F-NH2) | 0.0568 |  | IC50 (μ receptors; GPI(IC50), Table 1): 0.077 µM
2 | H-Tyr-Chl-Phe-Phe-NH2 [BCH2578] |  | >10 | 
3 | C[C@@H](NC(=O)[C@@H](N)Cc1ccc(O)cc1)C(=O)N[C@@H](Cc1c[nH]c2ccccc12)C(=O)N[C@@H](Cc1ccc2ccccc2c1)C(N)=O [BCH2213, H-Tyr-D-Ala-Trp-2′-Nal-NH2] (H-Y[dA]W[2Nal]-NH2) |  | >5 | 
4 | C[C@@H](NC(=O)[C@@H](N)Cc1ccc(O)cc1)C(=O)N[C@@H](Cc1ccccc1)C(=O)N[C@@H](Cc1ccc(N=[N+]=[N-])cc1)C(N)=O [BCH1778, H-Tyr-D-Ala-Phe-Phe(4-N3)—NH2] (H-Y[dA]F[Phe(4-N3)]-NH2) | 0.00149 |  | IC50 (μ receptors; GPI(IC50), Table 1): 0.05 µM
5 | C[C@@H](NC(=O)[C@@H](N)Cc1ccc(O)cc1)C(=O)N[C@@H](Cc1ccccc1)C(=O)N[C@@H](Cc1cccc2ccccc12)C(N)=O [BCH1782, H-Tyr-D-Ala-Phe-1′-Nal-NH2] (H-Y[dA]F[1Nal]-NH2) | 0.000981 | >20 | IC50 (μ receptors; GPI(IC50), Table 1): 0.002 µM
6 | C[C@@H](NC(=O)[C@@H](N)Cc1ccc(O)cc1)C(=O)N[C@@H](Cc1ccccc1)C(=O)N[C@@H](Cc1c[nH]c2ccccc12)C(N)=O [BCH1785, H-Tyr-D-Ala-Phe-Trp-NH2] (H-Y[dA]FW-NH2) | 0.00221 | >20 | IC50 (μ receptors; GPI(IC50), Table 1): 0.016 µM
7 | C[C@@H](NC(=O)[C@@H](N)Cc1ccc(O)cc1)C(=O)N[C@@H](Cc1ccc2ccccc2c1)C(=O)N[C@@H](Cc1cccc2ccccc12)C(N)=O [BCH758, H-Tyr-D-Ala-2′-Nal-1′-Nal-NH2] (H-Y[dA][2Nal][1Nal]-NH2) | 0.00561 | >20 | 
8 | N=C(N)NCCC[C@@H](NC(=O)[C@@H](N)Cc1ccc(O)cc1)C(=O)N[C@@H](Cc1ccccc1)C(=O)N[C@@H](CSCc1ccccc1)C(N)=O [BCH3241, H-Tyr-D-Arg-Phe-Cys(Bzl)NH2] (H-Y[dR]FC(Bn)-NH2) | 0.00695 |  | IC50 (μ receptors; GPI(IC50), Table 1): 0.033 µM
9 | C[C@@H](NC(=O)[C@@H](N)Cc1ccc(O)cc1)C(=O)N[C@H](Cc1ccccc1)C(=O)N[C@@H](Cc1ccccc1)C(N)=O [BCH1775, H-Tyr-D-Ala-D-Phe-Phe-NH2] (H-Y[dA][dF]F-NH2) |  |  | Ki (μ receptor): 0.026 µM; IC50 (μ receptors): 0.925 µM
10 | CC(C)(NC(=O)[C@@H](N)Cc1ccc(O)cc1)C(=O)N[C@@H](Cc1ccccc1)C(=O)N[C@@H](Cc1ccccc1)C(N)=O [BCH754, H-Tyr-Aib-Phe-Phe-NH2] (H-Y[Aib]FF-NH2) |  | >20 | 
11 | CC[C@@H](NC(=O)[C@@H](N)Cc1ccc(O)cc1)C(=O)N[C@@H](Cc1ccccc1)C(=O)N[C@@H](Cc1ccccc1)C(N)=O [BCH2577, H-Tyr-D-Abu-Phe-Phe-NH2] (H-Y[dAbu]FF-NH2) |  | >10 | 
12 | CC(C)C[C@@H](NC(=O)[C@@H](N)Cc1ccc(O)cc1)C(=O)N[C@@H](Cc1ccccc1)C(=O)N[C@@H](Cc1ccccc1)C(N)=O [BCH2465, H-Tyr-D-Leu-Phe-Phe-NH2] (H-Y[dL]FF-NH2) |  | >10 | 
13 | NC(=O)[C@H](Cc1ccccc1)NC(=O)[C@H](Cc1ccccc1)NC(=O)C1(NC(=O)[C@@H](N)Cc2ccc(O)cc2)CCCC1 [BCH2579, H-Tyr-Cle-Phe-Phe-NH2] (H-Y[Ac5c]FF-NH2) |  | >10 | 
14 | C[C@@H](NC(=O)[C@@H](N)Cc1ccc(O)cc1)C(=O)N[C@@H](Cc1cccc2ccccc12)C(=O)N[C@@H](Cc1cccc2ccccc12)C(N)=O [BCH1783, H-Tyr-D-Ala-1′-Nal-1′-Nal-NH2] (H-Y[dA][1Nal][1Nal]-NH2) | 0.00288 | >20 | 
15 | CC[C@@H](C)[C@@H](NC(=O)[C@@H](N)Cc1ccc(O)cc1)C(=O)N[C@@H](Cc1ccccc1)C(=O)N[C@@H](Cc1ccccc1)C(N)=O [BCH2473, H-Tyr-D-Ile-Phe-Phe-NH2] (H-Y[dI]FF-NH2) |  | >10 | 
16 | CCCC[C@@H](NC(=O)[C@@H](N)Cc1ccc(O)cc1)C(=O)N[C@@H](Cc1c[nH]c2ccccc12)C(=O)N[C@@H](Cc1ccc2ccccc2c1)C(N)=O [BCH2214, H-Tyr-D-Nle-Trp-2′-Nal-NH2] (H-Y[dNle]W[2Nal]-NH2) |  | 15 | 
17 | C[C@@H](NC(=O)[C@@H](N)Cc1ccc(O)cc1)C(=O)N[C@@H](Cc1ccccc1)C(=O)N1Cc2ccccc2C[C@H]1C(N)=O [BCH1780, H-Tyr-D-Ala-Phe-Tic-NH2] (H-Y[dA]F[Tic]-NH2) | 0.0127 |  | 
18 | C[C@@H](NC(=O)[C@@H](N)Cc1ccc(O)cc1)C(=O)N[C@@H](Cc1ccccc1)C(=O)N(C)[C@@H](Cc1ccccc1)C(N)=O [BCH1781, H-Tyr-D-Ala-Phe-Phe(NMe)-NH2] (H-Y[dA]F[NMeF]-NH2) | 0.0226 |  | IC50 (μ receptors; GPI(IC50), Table 1): 0.241 µM
19 | CCCC[C@@H](NC(=O)[C@@H](N)Cc1ccc(O)cc1)C(=O)N[C@@H](Cc1ccccc1)C(=O)N[C@@H](Cc1ccc2ccccc2c1)C(N)=O [BCH2211, H-Tyr-D-Nle-Phe-2′-Nal-NH2] (H-Y[dNle]F[2Nal]-NH2) |  | >10 | 
20 | H-Tyr-∇Ala-Phe-Phe-NH2 [BCH1787] |  | 10 | 
21 | ∇CH2Tyr-D-Ala-Phe-Phe-NH2 [BCH2202] |  | >10 | 
22 | C[C@@H](NC(=O)[C@@H](N)Cc1ccc(O)cc1)C(=O)N[C@@H](Cc1c[nH]c2ccccc12)C(=O)N[C@@H](Cc1c[nH]c2ccccc12)C(N)=O [BCH1786, H-Tyr-D-Ala-Trp-Trp-NH2] (H-Y[dA]WW-NH2) | 0.000833 | 10 | 
23 | CCCC[C@@H](NC(=O)[C@@H](N)Cc1ccc(O)cc1)C(=O)N[C@@H](Cc1c[nH]c2ccccc12)C(=O)N[C@@H](Cc1ccccc1)C(N)=O [BCH2212, H-Tyr-D-Nle-Trp-Phe-NH2] (H-Y[dNle]WF-NH2) |  | >10 | 
24 | C[C@@H](NC(=O)[C@@H](N)Cc1ccc(O)cc1)C(=O)N[C@@H](Cc1ccccc1)C(=O)N[C@@H](CSCc1ccccc1)C(N)=O [BCH3240, H-Tyr-D-Ala-Phe-Cys(Bzl)NH2] (H-Y[dA]FC(Bn)-NH2) | 0.0053 |  | IC50 (μ receptors; GPI(IC50), Table 1): 0.00916 µM
25 | CCCC[C@@H](NC(=O)[C@@H](N)Cc1ccc(O)cc1)C(=O)N[C@@H](Cc1c[nH]c2ccccc12)C(=O)N[C@@H](Cc1c[nH]c2ccccc12)C(N)=O [BCH2217, H-Tyr-D-Nle-Trp-Trp-NH2] (H-Y[dNle]WW-NH2) |  | >5 | 
26 | CC(C)[C@@H](NC(=O)[C@@H](N)Cc1ccc(O)cc1)C(=O)N[C@@H](Cc1ccccc1)C(=O)N[C@@H](Cc1ccccc1)C(N)=O [BCH2464, H-Tyr-D-Val-Phe-Phe-NH2] (H-Y[dV]FF-NH2) |  | >10 | 
27 | C[C@H](O)[C@@H](NC(=O)[C@@H](N)Cc1ccc(O)cc1)C(=O)N[C@@H](Cc1ccccc1)C(=O)N[C@@H](Cc1ccccc1)C(N)=O [BCH2811, H-Tyr-D-Thr-Phe-Phe-NH2] (H-Y[dT]FF-NH2) |  | 12 | 
28 | CCCC[C@@H](NC(=O)[C@@H](N)Cc1ccc(O)cc1)C(=O)N[C@@H](Cc1ccccc1)C(=O)N[C@@H](Cc1c[nH]c2ccccc12)C(N)=O [BCH2208, H-Tyr-D-Nle-Phe-Trp-NH2] (H-Y[dNle]FW-NH2) |  | >3 | 
